Columns and labels:
Type in all cases: binding
LC3A (C17) = LC3A (C17) (Homo sapiens, UniProt Q9H492); assay: gel-based ABPP screen of cysteine-reactive covalent ligands against IA-alkyne labeling of LC3A; conditions: for hit that displaced IA-alkyne probe labeling of C17 on LC3A (loss of in-gel fluorescence): pure LC3A protein
Excerpt: The critical part of this platform was to first develop a small-molecule recruiter for an autophagy adapter. We performed chemoproteomics-enabled covalent ligand discovery against the autophagy adapter LC3A, an important autophagy protein involved in substrate recognition, to discover an LC3A-recruiter, which can be combined with a protein targeting ligand via a linker to enable targeted protein autophagy of undruggable targets. […] While the NETS-ester probe appeared to label multiple sites on LC3A, the IA-alkyne probe apparently labeled one site, consistent with only one cysteine within LC3A-C17. Across the LC3 proteins, LC3A is the only protein that bears one cysteine. We next screened our cysteine-reactive covalent ligand library against iodoacetamide-alkyne (IA-alkyne) labeling of C17 on LC3A, and looked for hits that displaced probe-labeling resulting in loss of fluorescence by gel. Through this effort, we identified several cysteine-reactive acrylamide hits, including TRH 1-65, TRH 1-68, TRH 1-170, TRH 1-171, YP 1-44, CC 1-42, CC 1-48, EN2, EN7, EN35, and EN40 (FIGS. 5A-5D). These small-molecule recruiters or analogs of these chemical scaffolds that also bind to LC3A C17 can now be appended to linkers and protein targeting ligands to send specific protein cargo, and associated cellular contents, compartments, cells, or organelles off for targeted protein autophagy and lysososomal degradation. […] Examples of compounds that can be appended onto an autophagy adapter recruiter is JQ1, an inhibitor of bromodomain-containing BRD4 protein (an epigenetic regulator implicated in numerous human cancers). JQ1 can be appended to a linker, and an LC3A recruiter EN7 to degrade BRD4 in cells (FIGS. 7A-7C). Protein autophagy degrader can also be used to broadly recognize misfolded proteins and protein aggregates by conjugating thioflavin T, a general aggregate-protein recognizing compound, to a linker and EN7 to send these toxic protein aggregates and misfolded proteins to the autophagosome for lysosomal degradation (FIG. 8).

p62/SQSTM1 protein = p62/SQSTM1 protein (Homo sapiens, UniProt Q13501); assay: MS/MS of direct adduct on a peptide derived from p62/SQSTM1
Excerpt: FIG. 14. MS/MS data corresponding to the direct adduct of EN96 on a peptide derived from p62/SQSTM1.

SQSTM1 (p62) = SQSTM1 (p62) (Homo sapiens, UniProt Q13501); assay: gel-based ABPP cysteine-reactive covalent ligand screen against SQSTM1 (p62); conditions: FIGS. 10A-10B
Excerpt: We have performed a cysteine-reactive covalent ligand screen against the autophagy adapter protein SQSTM1 (p62) using gel-based activity-based protein profiling (ABPP) approaches. We have identified several hit compounds that targeted a cysteine on SQSTM1 (FIGS. 10A-10B). […] To test whether we can use this potential SQSTM1 recruiter EN96 in a TADT platform, we synthesized BMF-1-64, which links EN96 to a BRD4 inhibitor JQ1, to determine whether we could degrade BRD4 in a proteasome-independent manner (FIG. 11).

LC3A = LC3A (Homo sapiens, UniProt Q9H492); assay: Gel-based ABPP analysis against LC3A; conditions: IA-alkyne probe
Experimental: FIGS. 5A-5D. Covalent ligand screen against LC3A. Gel-based ABPP screen of cysteine-reactive ligand library against IA-alkyne labeling of LC3A. Cysteine-reactive covalent ligands were pre-incubated with LC3A pure protein (50 microM) for 30 min at room temperature prior to IA-alkyne labeling of the protein (10 microM) for 30 min at room temperature. Proteins were run on SDS/PAGE and in-gel fluorescence was analyzed.

SQSTM1 (p62), sequence (Q13501 whole entry): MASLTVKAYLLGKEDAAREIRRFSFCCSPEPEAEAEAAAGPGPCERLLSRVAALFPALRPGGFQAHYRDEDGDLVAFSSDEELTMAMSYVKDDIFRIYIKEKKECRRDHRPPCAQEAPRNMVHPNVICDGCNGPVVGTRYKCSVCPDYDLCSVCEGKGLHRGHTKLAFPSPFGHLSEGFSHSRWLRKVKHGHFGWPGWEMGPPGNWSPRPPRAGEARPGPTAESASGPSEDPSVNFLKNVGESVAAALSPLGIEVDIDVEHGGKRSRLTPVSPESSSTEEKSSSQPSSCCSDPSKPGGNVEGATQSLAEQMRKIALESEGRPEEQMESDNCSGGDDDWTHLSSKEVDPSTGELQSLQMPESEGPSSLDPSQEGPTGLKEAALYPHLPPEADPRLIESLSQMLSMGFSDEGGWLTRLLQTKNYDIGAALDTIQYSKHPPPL
p62/SQSTM1 protein, sequence (Q13501 whole entry): as above

hit that displaced IA-alkyne probe labeling of C17 on LC3A (loss of in-gel fluorescence) (LC3A (C17)) | Structure (SMILES) | also measured
hits | C=CC(=O)NC(c1ccco1)c1ccccc1OC (centres unmarked) [EN35] | –
hits | C=CC(=O)N=C1N=C2C=CC(I)=CN2Cc2ccccc21 [EN7] | targeting of C17 of LC3A, lowest concentration (LC3A): ≥ 1 µM; concentration down to which the compound binds LC3A (LC3A (C17); FIG. 6): ≥ 1 µM

Continued, compound first:

Structure (SMILES) | hit that displaced IA-alkyne probe labeling of C17 on LC3A (loss of in-gel fluorescence) (LC3A (C17)) | also measured
C=CC(=O)N1CCC(C)C(c2ccco2)C1 (centres unmarked) [EN40] | hits | –
C=CCOc1ccccc1CN(C(=O)CCl)c1ccc2c(c1)OCO2 [EN96] | – | cysteine of p62/SQSTM1 modified (p62/SQSTM1 protein): reacts with C113; potency ranking among covalent ligand hits against SQSTM1 (SQSTM1 (p62)): most potent covalent ligand against SQSTM1
C=CC(=O)NCc1ccc(C(=O)N2CCC(c3nc4ccccc4s3)CC2)cc1 [EN2] | hits | –

From US11666661B2, “Methods and compounds for targeted autophagy” (THE REGENTS OF THE UNIVERSITY OF CALIFORNIA, priority 2018, dated 2023)
